Experimental data taken from patent US20200148682A1, “AKT ISOZYME-SPECIFIC COVALENT INHIBITORS DERIVED FROM REDOX-SIGNALING LIPIDS” (Cornell University, priority 2017, published 2020).
“And” between values parts separate entries of the source, which are not always exact repeats. Identical values can stand only once.

Tests used:
Assay type in all cases: cell-based
Akt3 (pT305) = target: T1, Akt3 (pT305) (Homo sapiens, UniProt Q9Y243); test: Western blot and ratiometric ELISA of Akt phosphorylation in HEK293T cells; details: 5 μM, 48 hours
T1 construct: expressed in transfected cells; host or cells: HEK293T
Description: (§1) After this time, cells were lysed and analyzed by antibodies for phosphorylated T305 (pT305) of Akt3, Halo (Akt), and Actin (loading control). […] FIG. 23F is a graph showing proliferation curves. […] After this time, the number of viable cells was calculated using AlamarBlue®. Proliferation curves were fitted to the PI50 equation (EQN. 4). […] FIG. 23H is a graph showing the percentage of viable cells. […] The percentage of growth relative to DMSO-treated cells is shown for the 48 hour point and the 72 hour point. FIG. 23I is a schematic showing the different methods used to derive the data in 23H.
The proteins in gel were transferred onto a PVDF membrane in Towbin buffer at 90 V for 2 hours at 4° C. or at 33 V overnight at 4° C. […] Proteins were visualized using Pierce™ ECL Western Blotting Substrate (32106, Thermo Fisher), Pierce™ ECL2 Western Blotting Substrate (32132, Thermo Fisher) or SuperSignal™ Western Blot Enhancer (46640, Thermo Fisher), depending on the signal strength.
Anti-Halo antibody at 1 μg/mL concentration in sodium bicarbonate buffer (pH 9.6) was added to a 96-well white plate (80 μL […]) at 4° C. for 24 hours. After this, the incubation buffer was removed and the wells were washed once with TBS-T2 (100 mM Tris, 150 mM NaCl 0.03% Tween-20) and then blocked in 5% BSA in TBS-T2 (280 μL per well) for 3-5 hours at room temperature. […]

[1] = test system: six other cultured cell lines (breast cancer lines not PTEN-null TNBC, fibroblast lines); test: Cell viability assay (AlamarBlue), six other cultured cell lines; details: for toxicity and selectivity across cell lines: 3 days
Description: as §1
Indicated cells were plated in a 96-well plate containing the DMEM complete medium (see Example 11 for complete medium formulation, 100 μL per well) with a density of 3,000-5,000 cells per well for 12 hours followed by the addition of varying concentrations of inhibitors in rinse medium (100 μL). The cells were allowed to grow for 72 hours and 100 μL of the culture medium was removed from each well. This was followed by the addition of 10 μL AlamarBlue® reagent to each well. The fluorescence emission signals at 590 nm were read by Cytation 3 cell imaging multi-mode reader (BioTeK) using an excitation wavelength of 560 nm. Curve fitting and data analysis were performed using Prism software.

MDA-MB-468 cells [2] = test: Drug effect persistence assay; details: for proliferation after drug withdrawal vs continuous treatment: 48 hours drug, then 24 hours without
Description: as §1
MDA-MB-468 cells were plated in a 96-well plate at a density of 3,000-5,000 cells per well for 10 hours before the addition of varying concentrations of inhibitors. The cells were allowed to grow for 48 hours. The cell medium was aspirated and the cells were washed once with DMEM medium. The cells continued to grow in 5% FBS DMEM medium for 24 hours before adding 1/10th volume of AlamarBlue® reagent to cells in culture medium. The fluorescence emission signals at 590 nm were read using a Cytation 3 cell imaging multi-mode reader (BioTeK) using an excitation wavelength of 560 nm. Curve fitting and data analyses were performed using Prism software (FIG. 23I).

MDA-MB-468 cells [3] = test: Assay for drug synergism with Akt isoform-specific knockdown; details: for Fold Selectivity (MK-FNE vs MK-2206 sensitization by knockdown): 72 hours
Description: MDA-MB-468 cells were plated in a 6-well plate to reach 80% confluence 10 hours post seeding. […] The cells were allowed to grow for 12 hours before addition of an equivalent volume of rinse medium containing varying concentrations of MK-2206, MK-FNE, or DMSO. The cells continued to grow for 72 hours before adding 1/10th volume of AlamarBlue® reagent to culture medium. The fluorescence emission signals at 590 nm were read by Cytation 3 cell imaging multi-mode reader (BioTeK) using an excitation wavelength of 560 nm. Curve fitting and data analysis were performed using Prism software. The effect of the different knockdowns on the drug action was expressed by calculating the fold selectivity (S): […]

[4] = knockdown of Akt3 (approximately 40-60%)

T1 sequence (Q9Y243 whole entry): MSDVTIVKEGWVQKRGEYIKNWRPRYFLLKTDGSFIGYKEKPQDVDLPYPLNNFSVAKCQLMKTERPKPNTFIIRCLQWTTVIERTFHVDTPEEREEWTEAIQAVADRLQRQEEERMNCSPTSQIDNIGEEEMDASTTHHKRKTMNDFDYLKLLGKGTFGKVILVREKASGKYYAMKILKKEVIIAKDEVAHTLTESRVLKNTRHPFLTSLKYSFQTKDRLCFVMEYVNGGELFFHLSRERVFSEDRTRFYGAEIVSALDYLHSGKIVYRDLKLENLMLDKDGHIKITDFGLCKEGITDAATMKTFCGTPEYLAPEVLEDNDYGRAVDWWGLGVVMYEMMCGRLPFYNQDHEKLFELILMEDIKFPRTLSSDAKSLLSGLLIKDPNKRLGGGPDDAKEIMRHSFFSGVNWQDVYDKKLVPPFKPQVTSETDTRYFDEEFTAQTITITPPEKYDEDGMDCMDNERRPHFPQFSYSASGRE

Row | SMILES | phosphorylation of T305 of Akt3 (Akt3 (pT305)) | toxicity and selectivity across cell lines [1] | proliferation after drug withdrawal vs continuous treatment (MDA-MB-468 cells [2]) | EC60 concentration (MDA-MB-468 cells [2]; MDA-MB-468, concentration used for 48 hours treatment) [nM] | sensitization to toxicity relative to control knockdown cells (MDA-MB-468 cells [3]; [4]) | PI50(MK-FNE)/PI50(MK-2206) ([1]; all but PTEN-null TNBC lines, except TSE) | PI50(MK-FNE)/PI50(MK-2206) ([1]; some lines) | sensitization to toxicity relative to control knockdown cells (MDA-MB-468 cells [3]; Akt1 or Akt2 knockdown (approximately 40-60%), on average) | Fold Selectivity (MK-FNE vs MK-2206 sensitization by knockdown) (MDA-MB-468 cells [3]; siAKT1, two siRNAs) | Fold Selectivity (MK-FNE vs MK-2206 sensitization by knockdown) (MDA-MB-468 cells [3]; siAKT3, two siRNAs)
1 | C#CCCCC(O)/C=C/C(=O)NC1(c2ccc(-c3nc4ccn5c(=O)[nH]nc5c4cc3-c3ccccc3)cc2)CCC1.Cl (centres unmarked) [MK-HNE, (E)-8-(4-(1-(4-Hydroxynon-2-en-8-ynamido)cyclobutyl)phenyl)-3-oxo-9-phenyl-2,3-dihydro-[1,2,4]triazolo[3,4-f][1,6]naphthyridin-7-ium Chloride] | did not affect phosphorylation levels | – | – | – | – | – | – | – | – | –
2 | NC1(c2ccc(-c3nc4ccn5c(=O)[nH]nc5c4cc3-c3ccccc3)cc2)CCC1 [MK-2206] | lowered phospho-T305 (pT305) levels considerably | generally toxic to most lines | significant regain of proliferation | 2000 | 2-3 fold | – | – | – | – | –
3 | C#CCCCC(F)/C=C/C(=O)NC1(c2ccc(-c3nc4ccn5c(=O)[nH]nc5c4cc3-c3ccccc3)cc2)CCC1.Cl (centres unmarked) [MK-FNE, (E)-8-(4-(1-(4-Fluoronon-2-en-8-ynamido)cyclobutyl)phenyl)-3-oxo-9-phenyl-2,3-dihydro-[1,2,4]triazolo[3,4-f][1,6]naphthyridin-7-ium Chloride] | – | significantly selective against PTEN-null TNBC lines | no difference between withdrawal (wd) and continuous (cont) treatment | – | around 8 fold | greater than 2 | above 8 | around 2 fold | 0.5 and 0.4 | 3.9 and 3.7
